Structures can show the parent of a compound that is named as a salt.
Assay: In vitro rat liver S9 stability assay, formation of tafamidis
Assay type: in vitro ADME
Conditions: rat liver S9, 37° C., 1 µM test compound
Procedure: The test compound was added to liver S9 and incubated at 37° C. in a water bath at a concentration of 1 µM. At each time point (0, 5, 10, 20, 30 and 60 min), stop solution (tolbutamide plus labetalol) was added to precipitate protein and mixed thoroughly. After centrifugation, an aliquot of supernatant was analyzed by LC-MS/MS. The percentage of formation of active agent was calculated at each time point.

SMILES	Formation of tafamidis at 60 min
CN(C)[C@H]1C[C@@H]1OC(=O)c1ccc2nc(-c3cc(Cl)cc(Cl)c3)oc2c1 (relative stereo) [Compound 154, trans 2-(dimethylamino)cyclopropyl 2-(3,5-dichlorophenyl)benzo-[d]oxazole-6-carboxylate hydrochloride]	C (C is ≥50 to <75%)
Cn1ccc(CCCOC(=O)c2ccc3nc(-c4cc(Cl)cc(Cl)c4)oc3c2)n1 [Compound 104]	B (B is ≥25 to <50%)
O=C(OCCc1ccccn1)c1ccc2nc(-c3cc(Cl)cc(Cl)c3)oc2c1 [Compound 105]	D (D is ≥75%)
O=C(OCCCc1ccccn1)c1ccc2nc(-c3cc(Cl)cc(Cl)c3)oc2c1 [Compound 106]	D (D is ≥75%)
O=C(OCc1cccnc1)c1ccc2nc(-c3cc(Cl)cc(Cl)c3)oc2c1 [Compound 107]	D (D is ≥75%)
O=C(OCCc1cccnc1)c1ccc2nc(-c3cc(Cl)cc(Cl)c3)oc2c1 [Compound 108]	D (D is ≥75%)
O=C(OCc1ccncc1)c1ccc2nc(-c3cc(Cl)cc(Cl)c3)oc2c1 [Compound 109]	C (C is ≥50 to <75%)
O=C(OCCc1ccncc1)c1ccc2nc(-c3cc(Cl)cc(Cl)c3)oc2c1 [Compound 110]	C (C is ≥50 to <75%)
O=C(OCCCc1cccnc1)c1ccc2nc(-c3cc(Cl)cc(Cl)c3)oc2c1 [Compound 112]	D (D is ≥75%)
O=C(OCCCc1ccncc1)c1ccc2nc(-c3cc(Cl)cc(Cl)c3)oc2c1 [Compound 113]	D (D is ≥75%)
COc1nc(C)c(COC(=O)c2ccc3nc(-c4cc(Cl)cc(Cl)c4)oc3c2)o1 [Compound 114, (2-methoxy-4-methyloxazol-5-yl)methyl 2-(3,5-dichlorophenyl)-benzo [d] oxazole-6-carboxylate]	A (A is <25%)
O=C(OC1CCN(C2CC2)C1)c1ccc2nc(-c3cc(Cl)cc(Cl)c3)oc2c1 (stereo not shown) [Compound 115]	D (D is ≥75%)
CN1CC(OC(=O)c2ccc3nc(-c4cc(Cl)cc(Cl)c4)oc3c2)C1 [Compound 118]	B (B is ≥25 to <50%)
CN(C)[C@@H]1CC[C@H]1OC(=O)c1ccc2nc(-c3cc(Cl)cc(Cl)c3)oc2c1 [Compound 120]	B (B is ≥25 to <50%)
CN(C)[C@H]1C[C@@H](OC(=O)c2ccc3nc(-c4cc(Cl)cc(Cl)c4)oc3c2)C1 [Compound 121]	A (A is <25%)
CN1CCCC1CCOC(=O)c1ccc2nc(-c3cc(Cl)cc(Cl)c3)oc2c1 (stereo not shown) [Compound 122]	A (A is <25%)
Cn1cncc1COC(=O)c1ccc2nc(-c3cc(Cl)cc(Cl)c3)oc2c1 [Compound 123]	C (C is ≥50 to <75%)
CN(C)[C@H]1C[C@H](OC(=O)c2ccc3nc(-c4cc(Cl)cc(Cl)c4)oc3c2)C1 [Compound 125]	A (A is <25%)
CN1CCC(CCOC(=O)c2ccc3nc(-c4cc(Cl)cc(Cl)c4)oc3c2)C1 (stereo not shown) [Compound 126]	A (A is <25%)
Cn1nccc1COC(=O)c1ccc2nc(-c3cc(Cl)cc(Cl)c3)oc2c1 [Compound 127]	D (D is ≥75%)
Cn1cc(COC(=O)c2ccc3nc(-c4cc(Cl)cc(Cl)c4)oc3c2)cn1 [Compound 128]	C (C is ≥50 to <75%)
Cn1cnc(COC(=O)c2ccc3nc(-c4cc(Cl)cc(Cl)c4)oc3c2)c1 [Compound 129]	D (D is ≥75%)
O=C(OCc1cccnn1)c1ccc2nc(-c3cc(Cl)cc(Cl)c3)oc2c1 [Compound 130]	D (D is ≥75%)
O=C(OCc1ccncn1)c1ccc2nc(-c3cc(Cl)cc(Cl)c3)oc2c1 [Compound 131]	D (D is ≥75%)
O=C(OCc1cnccn1)c1ccc2nc(-c3cc(Cl)cc(Cl)c3)oc2c1 [Compound 132]	D (D is ≥75%)
O=C(OCc1cncnc1)c1ccc2nc(-c3cc(Cl)cc(Cl)c3)oc2c1 [Compound 133]	C (C is ≥50 to <75%)
CN(C)[C@H]1CCC[C@H]1OC(=O)c1ccc2nc(-c3cc(Cl)cc(Cl)c3)oc2c1 [Compound 134]	A (A is <25%)

SMILES	Formation of tafamidis at 60 min
O=C(OCc1ccnnc1)c1ccc2nc(-c3cc(Cl)cc(Cl)c3)oc2c1 [Compound 135]	C (C is ≥50 to <75%)
CN1CCCC1CCCOC(=O)c1ccc2nc(-c3cc(Cl)cc(Cl)c3)oc2c1 (stereo not shown) [Compound 136]	A (A is <25%)
CN1CCC(CCCOC(=O)c2ccc3nc(-c4cc(Cl)cc(Cl)c4)oc3c2)C1 (stereo not shown) [Compound 137]	A (A is <25%)
CC(=O)N1CCC(OC(=O)c2ccc3nc(-c4cc(Cl)cc(Cl)c4)oc3c2)C1 (stereo not shown) [Compound 138]	A (A is <25%)
[2H]C([2H])([2H])N1CCC(OC(=O)c2ccc3nc(-c4cc(Cl)cc(Cl)c4)oc3c2)C1 (stereo not shown) [Compound 140]	A (A is <25%)
C[N+]1([O-])CCC(OC(=O)c2ccc3nc(-c4cc(Cl)cc(Cl)c4)oc3c2)C1 (stereo not shown) [Compound 141, 3-((2-(3,5-dichlorophenyl)benzo[d]oxazole-6-carbonyl)oxy)-1-methylpyrrolidine 1-oxide]	A (A is <25%)
CC[N+]1([O-])CCC(OC(=O)c2ccc3nc(-c4cc(Cl)cc(Cl)c4)oc3c2)C1 (stereo not shown) [Compound 142]	A (A is <25%)
CC(OC(=O)c1ccc2nc(-c3cc(Cl)cc(Cl)c3)oc2c1)c1ncccn1 (stereo not shown) [Compound 146]	C (C is ≥50 to <75%)
O=C(OC1CCN(CCF)C1)c1ccc2nc(-c3cc(Cl)cc(Cl)c3)oc2c1 (stereo not shown) [Compound 147]	B (B is ≥25 to <50%)
O=C(OCCCc1ncccn1)c1ccc2nc(-c3cc(Cl)cc(Cl)c3)oc2c1 [Compound 148, 3-(pyrimidin-2-yl)propyl 2-(3,5-dichlorophenyl)benzo[d]oxazole-6-carboxylate]	D (D is ≥75%)
O=C(OC1CCn2ccnc21)c1ccc2nc(-c3cc(Cl)cc(Cl)c3)oc2c1 (stereo not shown) [Compound 149]	D (D is ≥75%)
O=CN1CCC(OC(=O)c2ccc3nc(-c4cc(Cl)cc(Cl)c4)oc3c2)C1 (stereo not shown) [Compound 150]	B (B is ≥25 to <50%)
[2H]C([2H])([2H])N(CCCOC(=O)c1ccc2nc(-c3cc(Cl)cc(Cl)c3)oc2c1)C([2H])([2H])[2H] [Compound 152]	A (A is <25%)
O=C(OC1CCCn2ccnc21)c1ccc2nc(-c3cc(Cl)cc(Cl)c3)oc2c1 (stereo not shown) [Compound 155, 5,6,7,8-tetrahydroimidazo[1,2-a]pyridin-8-yl 2-(3,5-dichlorophenyl)benzo[d]oxazole-6-carboxylate]	D (D is ≥75%)
Cc1ncc2n1CCC2OC(=O)c1ccc2nc(-c3cc(Cl)cc(Cl)c3)oc2c1 (stereo not shown) [Compound 159, 3-methyl-6,7-dihydro-5H-pyrrolo[1,2-c]imidazol-7-yl 2-(3,5-dichlorophenyl)benzo[d]oxazole-6-carboxylate hydrochloride]	D (D is ≥75%)
CN1CC(OC(=O)c2ccc3nc(-c4cc(Cl)cc(Cl)c4)oc3c2)CCC1=O (stereo not shown) [Compound 162]	B (B is ≥25 to <50%)
O=C(OC1CCCN(Cc2ccccc2)C1)c1ccc2nc(-c3cc(Cl)cc(Cl)c3)oc2c1 (stereo not shown) [Compound 164]	B (B is ≥25 to <50%)
O=C(OCC1CCCN1Cc1ccccc1)c1ccc2nc(-c3cc(Cl)cc(Cl)c3)oc2c1 (stereo not shown) [Compound 165]	C (C is ≥50 to <75%)
CC(Cc1cccnc1)OC(=O)c1ccc2nc(-c3cc(Cl)cc(Cl)c3)oc2c1 (stereo not shown) [Compound 168, 1-(pyridin-3-yl)propan-2-yl 2-(3,5-dichlorophenyl)benzo[d]oxazole-6-carboxylate]	B (B is ≥25 to <50%)
CC(Cc1ccncc1)OC(=O)c1ccc2nc(-c3cc(Cl)cc(Cl)c3)oc2c1 (stereo not shown) [Compound 169]	B (B is ≥25 to <50%)
CN1CC(OC(=O)c2ccc3nc(-c4cc(Cl)cc(Cl)c4)oc3c2)CC(F)(F)C1 (stereo not shown) [Compound 171, 5,5-difluoro-1-methylpiperidin-3-yl 2-(3,5-dichlorophenyl)benzo[d]oxazole-6-carboxylate]	C (C is ≥50 to <75%)
CCN1CCCC1COC(=O)c1ccc2nc(-c3cc(Cl)cc(Cl)c3)oc2c1 (stereo not shown) [Compound 172]	B (B is ≥25 to <50%)
CN(CCF)C(=O)c1ccc2nc(-c3cc(Cl)cc(Cl)c3)oc2c1 [Compound 173]	A (A is <25%)
CN(CC(F)F)C(=O)c1ccc2nc(-c3cc(Cl)cc(Cl)c3)oc2c1 [Compound 174]	A (A is <25%)
O=C(OC1CCCC1)c1ccc2nc(-c3cc(Cl)cc(Cl)c3)oc2c1 [Compound 184]	B (B is ≥25 to <50%)
O=C(OCc1ccccc1)c1ccc2nc(-c3cc(Cl)cc(Cl)c3)oc2c1 [Compound 186]	D (D is ≥75%)
O=C(OCCc1ccccc1)c1ccc2nc(-c3cc(Cl)cc(Cl)c3)oc2c1 [Compound 187]	C (C is ≥50 to <75%)

Assay: In vitro rat plasma stability assay, formation of tafamidis
Assay type: in vitro ADME
Conditions: 37° C., 2 µM test compound
Procedure: A stability assay in plasma (rat or human) was used to evaluate the ability of a compound provided herein to convert to an active TTR stabilizer. The test compound was added to plasma and incubated at 37° C. in a water bath at a concentration of 2 µM. At each time point (0, 10, 30, 60 and 120 min or 0, 60, 120, 180 and 240 min), stop solution (tolbutamide plus labetalol) was added to precipitate protein and mixed thoroughly. After centrifugation, an aliquot of supernatant was analyzed by LC-MS/MS. The percentage of formation of active agent was calculated at each time point.

SMILES	Formation of tafamidis at 120 min
CC(=O)OCC(COC(C)=O)OC(=O)c1ccc2nc(-c3cc(Cl)cc(Cl)c3)oc2c1 [Compound 2, 2-(2-(3,5-Dichlorophenyl)benzo[d]oxazole-6-carbonyloxy)propane-1,3-diyl diacetate]	B (B is ≥25 to <50%)

Source: patent US20230287021A1, “COMPOUNDS, COMPOSITIONS AND METHODS FOR STABILIZING TRANSTHYRETIN AND INHIBITING TRANSTHYRETIN MISFOLDING” (Protego Biopharma, Inc., priority 2020, published 2023)
